Values after ≈ are worked out from the molar mass of the structure shown.

In experiment [1] the test system is E. coli. Nature of the experiment: microbe, parasite or virus in culture. The following applies: for Antibacterial MIC E. Coli: serial two-fold dilutions, IA = Inactive. On the procedure:
(§1) Compounds were tested using E. coli, G. vaginalis or S. aureus. Bacteria were grown on appropriate media containing a range of concentrations of the test compounds which were obtained by serial two-fold dilutions. Concentrations used were at least twice the MIC to at least ½ the break point for susceptibility to inhibition. MICs were determined spectrophotometrically by measuring changes in absorbance of bacterial cultures in the absence and presence of the test compounds.

Experiment [2] deals with G. vaginalis. Nature of the experiment: Antibacterial MIC, G. vaginalis. It is filed as cell-based, Gardnerella vaginalis. The settings on record: serial two-fold dilutions, IA = Inactive. The protocol: as §1
The subject of experiment [3] is nitric oxide production induced by gamma interferon in PAM212 keratinocytes. The following applies: read-out: Nitric oxide inhibition IC50, 100 U/ml gamma interferon, nitrite at 72 hours.
Method: The assay for measurement of anti-inflammatory activity is based on the ability of the cytokine gamma interferon to induce the formation of nitric oxide synthase and subsequently of nitric oxide itself in keratinocytes.
For each assay the cells were inoculated into a 24-well tissue culture plate at 250,000 cells per well in growth medium. After 24 hours the medium was changed to phenol red and serum-free DMEM containing 100 U/ml of gamma interferon. Nitric oxide production was thereby initiated and at 72 hours post inoculation was quantified spectrophotometrically by measuring the accumulation of nitrite in the culture medium using the Greiss reagent. This was done by drawing an aliquot of the culture medium and mixing it with equal volumes of 1.0% sulfanilamide and 0.1% N-1-naphthylethylene diamine in 50% phosphoric acid. […] Compounds according to the present invention were assayed for their anti-inflammatory activity by examining their ability to suppress nitric oxide production in this assay.

In the case of `O=[N+]([O-])c1ccc(C=CC=Nn2c(S)nnc2-c2ccco2)o1` [Compound 3c, 4-[imino-(3-(5-nitro-2-furyl)-2-ethylenyl)]-3-mercapto-5-(2-furoyl)-4H-1,2,4-triazole], in experiment [1], the “Antibacterial MIC E. Coli” value is 16.6 µg/mL. Moreover, the “Antibacterial MIC G. Vaginalis” value in experiment [2] worked out at 16.6 µg/mL.

Take `O=C1CN(/N=C/c2ccc([N+](=O)[O-])o2)C(=O)N1` [NF, Nitrofurantoin, reference compound]: the MIC came to 1.2 µg/mL (≈ 5.04 µM) in experiment [1] (Escherichia coli, read-out: Antibacterial MIC E. Coli) and 11.9 µg/mL (≈ 50 µM) in experiment [2] (Gardnerella vaginalis).

Turning to `O=[N+]([O-])c1ccc(C=Nn2c(S)nnc2-c2cccs2)o1` [Compound 3d], the “Antibacterial MIC E. Coli” value in experiment [1] was found to be 16.0 µg/mL. For the same molecule, in experiment [2], the “Antibacterial MIC G. Vaginalis” value is 3.2 µg/mL.

Take `O=[N+]([O-])c1ccccc1C=CC=Nn1c(S)nnc1-c1cccs1` [Compound 3a, 4-[Imino-(3-(−2-nitrophenyl)-2-ethylenyl)]-3-mercapto-5-(2-thienyl)-4H-1,2,4-triazole]: in experiment [3], the IC50 was determined as 14 µM.
